Among the data in ChEMBL document CHEMBL5233274, “Current Landscape and Future Perspective of Oxazolidinone Scaffolds Containing Antibacterial Drugs” (J Med Chem, 2021) are IC50 and zone of inhibition values, retold here.

The test system of assay [1] is MCF7. In words: Cytotoxicity against human MCF7 cells assessed as reduction in cell viability by tryphan blue exclusion dye method. It is filed as functional, cell-based.
Assay [2] deals with Escherichia coli. In words: Antimicrobial activity against Escherichia coli assessed as inhibition zone at 200 ug/ml incubated for 24 hrs by disk diffusion method. In kind it is functional. Conditions: read-out: IZ.
In assay [3] the test system is Fusarium oxysporum. In words: Antimicrobial activity against Fusarium oxysporum assessed as inhibition zone at 200 ug/ml incubated for 24 hrs by disk diffusion method. Particulars: read-out: IZ. It is filed as functional.
Assay [4] has as its system HT-29. In words: Cytotoxicity against human HT-29 cells assessed as reduction in cell viability by tryphan blue exclusion dye method. In kind it is functional, cell-based.
Assay [5] relates to Bacillus subtilis. In words: Antimicrobial activity against Bacillus subtilis assessed as inhibition zone at 200 ug/ml incubated for 24 hrs by disk diffusion method. In kind it is functional. Particulars: read-out: IZ.

In brackets after ≈: the same amount, converted by molar mass.

Regarding `O=C1NC2(CO1)O/C(=C\c1ccc(Cl)cc1)C(=O)N2CCCNc1ccnc2cc(Cl)ccc12` (stereo not given), the IC50 in assay [1] was 16.1 µg/mL (≈ 32.2 µM); in assay [4], 32.4 µg/mL (≈ 64.9 µM). Further, the zone of inhibition at 200 µg/mL in assay [2] worked out at 13 mm; in assay [3] it was 10 mm; in assay [5], 14 mm.
